According to patent US20140128380A1, “METHODS OF MODULATING THE ACTIVITY OF THE MC1 RECEPTOR AND TREATMENT OF CONDITIONS RELATED TO THIS RECEPTOR” (Mimetica Pty Ltd, priority 2009, published 2014):

What follows are compounds tested against T1, human MC1R (hMC1R) (Homo sapiens, UniProt Q01726) (assay: Human MC1R radioligand binding assay (displacement of 125I-labeled NDP-MSH, Perkin Elmer hMC1R membranes)). Details: displacement of [125I]NDP-MSH, compounds tested as trifluoroacetate or hydrochloride salts or free base.
T1 construct: purchased Perkin Elmer ES-195-M400UA
Experimental: Assessments of compound binding to human MC1R (hMC1R)) by displacement of an ^125I-labeled NDP-MSH receptor ligand peptide were performed essentially as described in the data sheets produced by Perkin Elmer to accompany their frozen hMC1R membranes (Perkin Elmer catalog number ES-195-M400UA).
[^125I] NDP-MSH: radiolabeled in house and purified by HPLC:
Na ^125I (0.5 mCi, 17.4 Ci/mg) was added to 50 μL sodium phosphate (50 mM, pH 7.4) in an eppendorf tube precoated with IODOGEN. After incubation for 10 mins the phosphate buffer containing the iodine was added to NDP-MSH (10 ul at 1 mg/mL) in a separate eppendorf tube. This was incubated for a further 10 mins. The iodinated NDP-MSH was purified by HPLC on a Zorbax SB 300 column using solvent A: 0.05% TFA and solvent B: 90% acetonitrile 0.045% TFA with a linear gradient, 0-67% B over 60 mins.
Perkin Elmer frozen hMC1 membranes: catalog number ES-195-M400UA, 0.4 mL/vial; 400 microassays/vial, 0.78 mg/mL protein concentration
Vials of frozen membranes were thawed rapidly immediately before use, diluted with binding buffer and vortexed. Resuspended membranes were kept on ice until they were added to the wells of the plate.
Assays were performed in 96 well polypropylene plates. […] This was incubated for 1 hr at 37° C.

T1 sequence (Q01726 whole entry): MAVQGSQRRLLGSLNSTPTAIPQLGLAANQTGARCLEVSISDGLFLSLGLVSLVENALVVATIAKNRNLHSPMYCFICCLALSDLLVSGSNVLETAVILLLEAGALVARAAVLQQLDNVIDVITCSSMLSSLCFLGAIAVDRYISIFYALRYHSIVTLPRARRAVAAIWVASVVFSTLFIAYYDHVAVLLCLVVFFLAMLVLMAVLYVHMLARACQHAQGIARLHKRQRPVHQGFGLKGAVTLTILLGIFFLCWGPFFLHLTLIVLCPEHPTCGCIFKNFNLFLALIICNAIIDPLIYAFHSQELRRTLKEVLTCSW

Row | SMILES | IC50 [µM]
1 | NCCC[C@@H]1N[C@H](CNC(=O)c2ccc3ccccc3c2)CCN(CC2(c3ccccc3)CCCCC2)C1=O [Compound 144, N-(((3S,5S)-3-(3-aminopropyl)-2-oxo-1-((1-phenylcyclohexyl)methyl)-1,4-diazepan-5-yl)methyl)-2-naphthamide] | < 10
2 | CC[C@H](CN1CC[C@@H](CNC(=O)c2ccc(-c3ccccc3)cc2)N[C@@H](CCN2CCCCC2)C1=O)c1ccccc1 [Compound 177, N-(((3S,5S)-2-oxo-1-((S)-2-phenylbutyl)-3-(2-(piperidin-1-yl)ethyl)-1,4-diazepan-5-yl)methyl)biphenyl-4-carboxamide] | < 10
3 | CC(C)(C)c1ccc(C(=O)NC[C@@H]2CCN(CC(c3ccccc3)c3ccccc3)C(=O)[C@H](CCCNC(=N)N)N2)cc1 [Compound 114, 4-tert-butyl-N-(((3S,5S)-1-(2,2-diphenylethyl)-3-(3-guanidinopropyl)-2-oxo-1,4-diazepan-5-yl)methyl)benzamide] | < 10
4 | O=C(/C=C/c1ccc(Cl)cc1)NC[C@@H]1CCN(CC(c2ccccc2)c2ccccc2)C(=O)[C@H](CCCN2CCCCC2)N1 [Compound 132, (E)-3-(4-chlorophenyl)-N-(((3S,5S)-1-(2,2-diphenylethyl)-2-oxo-3-(3-(piperidin-1-yl)propyl)-1,4-diazepan-5-yl)methyl)acrylamide] | < 10
5 | O=C(NC[C@@H]1CCN(CC(c2ccccc2)c2ccccc2)C(=O)[C@H](CCN2CCCCC2)N1)c1ccc2cc(Cl)ccc2c1 [Compound 154, 6-chloro-N-(((3S,5S)-1-(2,2-diphenylethyl)-2-oxo-3-(2-(piperidin-1-yl)ethyl)-1,4-diazepan-5-yl)methyl)-2-naphthamide] | < 10
6 | NCCCC[C@H]1N[C@H](CNC(=O)c2ccc(-c3ccccc3)cc2)CCN(CCc2ccccc2)C1=O [Compound 184, N-(((3R,5S)-3-(4-aminobutyl)-2-oxo-1-phenethyl-1,4-diazepan-5-yl)methyl)biphenyl-4-carboxamide] | < 10
7 | O=C(/C=C/c1ccc(Cl)cc1)NC[C@@H]1CCN(Cc2cc(Cl)cc(Cl)c2)C(=O)[C@H](CCN2CCCCC2)N1 [Compound 145, (E)-3-(4-chlorophenyl)-N-(((3S,5S)-1-(3,5-dichlorobenzyl)-2-oxo-3-(2-(piperidin-1-yl)ethyl)-1,4-diazepan-5-yl)methyl)acrylamide] | < 10
8 | CNC(=O)[C@H](Cc1ccc2ccccc2c1)N1CC[C@H](CNC(=O)[C@H](N)Cc2ccc(F)cc2)N[C@@H](CCCNC(=N)N)C1=O [Compound 168, (R)-2-amino-3-(4-fluorophenyl)-N-(((3S,5R)-3-(3-guanidinopropyl)-1-((S)-1-(methylamino)-3-(naphthalen-2-yl)-1-oxopropan-2-yl)-2-oxo-1,4-diazepan-5-yl)methyl)propanamide] | < 10
9 | CNC(=O)[C@H](Cc1ccc2ccccc2c1)N1CC[C@H]2CN(Cc3ccc(F)cc3)C(=O)N2[C@@H](CCCNC(=N)N)C1=O [Compound 142, (S)-2-((5S,9aS)-2-(4-fluorobenzyl)-5-(3-guanidinopropyl)-3,6-dioxotetrahydro-1H-imidazo[1,5-d][1,4]diazepin-7(8H,9H,9aH)-yl)-N-methyl-3-(naphthalen-2-yl)propanamide] | < 10
10 | O=C(NC[C@@H]1CCN(CC(c2ccccc2)c2ccccc2)C(=O)[C@H](CCN2CCOCC2)N1)c1ccc2cc(Cl)ccc2c1 [Compound 181, 6-chloro-N-(((3S,5S)-1-(2,2-diphenylethyl)-3-(2-morpholinoethyl)-2-oxo-1,4-diazepan-5-yl)methyl)-2-naphthamide] | < 10
11 | O=C(/C=C/c1ccc(Cl)cc1)NC[C@@H]1CCN(CC(c2ccccc2)c2ccccc2)C(=O)[C@H](CCN2CCCCC2)N1 [Compound 101, (E)-3-(4-chlorophenyl)-N-(((3S,5S)-1-(2,2-diphenylethyl)-2-oxo-3-(2-(piperidin-1-yl)ethyl)-1,4-diazepan-5-yl)methyl)acrylamide] | < 10

Other lines, results leading:

Row | IC50 [µM] | SMILES
12 | < 10 | CC(=O)N[C@@H](Cc1c[nH]cn1)C(=O)N[C@@H](Cc1ccccc1)[C@@H]1CCN(CCc2c[nH]c3ccccc23)C(=O)[C@H](CCCNC(=N)N)N1 [Compound 118, (S)—N—((S)-1-((3S,5S)-1-(2-(1H-indol-3-yl)ethyl)-3-(3-guanidinopropyl)-2-oxo-1,4-diazepan-5-yl)-2-phenylethyl)-2-acetamido-3-(1H-imidazol-4-yl)propanamide]
13 | < 10 | O=C(/C=C/c1ccc(Cl)cc1)NC[C@@H]1CCN(CC(c2ccccc2)c2ccccc2)C(=O)[C@H](CCN2CCOCC2)N1 [Compound 159, (E)-3-(4-chlorophenyl)-N-(((3S,5S)-1-(2,2-diphenylethyl)-3-(2-morpholinoethyl)-2-oxo-1,4-diazepan-5-yl)methyl)acrylamide]
14 | < 10 | N=C(N)NCCC[C@@H]1N[C@H](CNS(=O)(=O)c2ccc3ccccc3c2)CCN(CC(c2ccccc2)c2ccccc2)C1=O [Compound 103, N-(((3S,5S)-1-(2,2-diphenylethyl)-3-(3-guanidinopropyl)-2-oxo-1,4-diazepan-5-yl)methyl)naphthalene-2-sulfonamide]
15 | < 10 | CC(C)c1ccc(/C=C/C(=O)NC[C@@H]2CCN(CC(c3ccccc3)c3ccccc3)C(=O)[C@H](CCN)N2)cc1 [Compound 156, (E)-N-(((3S,5S)-3-(2-aminoethyl)-1-(2,2-diphenylethyl)-2-oxo-1,4-diazepan-5-yl)methyl)-3-(4-isopropylphenyl)acrylamide]
16 | < 10 | NCCC[C@@H]1N[C@H](CNC(=O)c2ccc3cc(F)ccc3c2)CCN(CC(c2ccccc2)c2ccccc2)C1=O [Compound 122, N-(((3S,5S)-3-(3-aminopropyl)-1-(2,2-diphenylethyl)-2-oxo-1,4-diazepan-5-yl)methyl)-6-fluoro-2-naphthamide]
17 | < 10 | CC[C@H](CN1CC[C@@H](CNC(=O)c2csc(-c3ccccc3)n2)N[C@@H](CCN2CCCCC2)C1=O)c1ccccc1 [Compound 178, N-(((3S,5S)-2-oxo-1-((S)-2-phenylbutyl)-3-(2-(piperidin-1-yl)ethyl)-1,4-diazepan-5-yl)methyl)-2-phenylthiazole-4-carboxamide]
18 | < 10 | N=C(N)NCCC[C@@H]1N[C@H](CNC(=O)c2ccc3ccccc3c2)CCN(c2ccc3ccccc3c2)C1=O [Compound 125, N-(((3S,5S)-3-(3-guanidinopropyl)-1-(naphthalen-2-yl)-2-oxo-1,4-diazepan-5-yl)methyl)-2-naphthamide]
19 | < 10 | NC[C@@H]1N[C@H](CNC(=O)c2ccc3ccccc3c2)CCN(Cc2cc(Cl)cc(Cl)c2)C1=O [Compound 149, N-(((3S,5S)-3-(aminomethyl)-1-(3,5-dichlorobenzyl)-2-oxo-1,4-diazepan-5-yl)methyl)-2-naphthamide]
20 | < 10 | CC[C@@H](CN1CC[C@H](CNC(=O)c2ccc3cc(Cl)ccc3c2)N[C@H](CCN2CCCCC2)C1=O)c1ccccc1 [Compound 182, 6-chloro-N-(((3R,5R)-2-oxo-1-((R)-2-phenylbutyl)-3-(2-(piperidin-1-yl)ethyl)-1,4-diazepan-5-yl)methyl)-2-naphthamide]
21 | < 10 | COc1c(C(=O)NC[C@@H]2CCN(CC(c3ccccc3)c3ccccc3)C(=O)[C@H](CCCNC(=N)N)N2)ccc2ccccc12 [Compound 115, N-(((3S,5S)-1-(2,2-diphenylethyl)-3-(3-guanidinopropyl)-2-oxo-1,4-diazepan-5-yl)methyl)-1-methoxy-2-naphthamide]
